We go through 21 compounds from US8309586B2, “Glucokinase activators and pharmaceutical compositions containing the same as an active ingredient” (LG Life Sciences Ltd., priority 2007, dated 2012).

This experiment deals with Glucokinase known as hexokinase IV (human GK isoform 1, pancreas form and human GK isoform 2, liver form). The experiment in a line: Glucokinase enzymatic activity assay (G6PDH-coupled, NADH absorbance at 340 nm). Type of experiment: biochemical. The following applies: 5 mM glucose, 1 mM ATP, 37 nM GK, 10 min at room temperature. The method, boiled down:
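His-tagged human GK isoform 1 (pancreas) or 2 (liver), E. coli-expressed and Ni-purified, 37 nM, with 5 mM glucose, 1 mM ATP, 1 mM NAD and G6PDH in 25 mM Hepes/KCl, 2 mM MgCl2, 1 mM DTT. Ran 10 min at room temperature, read as NADH at 340 nm. AC1.5 is the compound concentration giving 1.5-fold activity.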
Consider `OCCC[C@@H]1CSC(c2cc3cc(Cl)cc(NC4CCCC4)c3[nH]2)=N1` [Example 150, 3-[(R)-2-(5-chloro-7-cyclopentylamino-1H-indol-2-yl)-4,5-dihydro-thiazol-4-yl]-propan-1-ol], for which the “AC1.5 (the compound concentration at which the enzymatic activity is increased by 1.5 times)” value turned out to be 10 nM.
Then `O=C(O)CC[C@@H]1CSC(c2cc3cc(Cl)cc(NC4CCOCC4)c3[nH]2)=N1` [Example 151, 3-{(R)-2-[5-chloro-7-(tetrahydro-pyran-4-ylamino)-1H-indol-2-yl]-4,5-dihydro-thiazol-4-yl}-propionic acid], with 14 nM; and `OCCC[C@@H]1CSC(c2cc3cc(Cl)cc(NC4CCOCC4)c3[nH]2)=N1` [Example 152, 3-{(R)-2-[5-chloro-7-(tetrahydro-pyran-4-ylamino)-1H-indol-2-yl]-4,5-dihydro-thiazol-4-yl}-propan-1-ol], with 14 nM; and `O=C(CC[C@@H]1CSC(c2cc3cc(Cl)cc(NC4CCCC4)c3[nH]2)=N1)NCCN1CCOCC1` [Example 153, 3-[(R)-2-(5-chloro-7-cyclopentylamino-1H-indol-2-yl)-4,5-dihydro-thiazol-4-yl]-N-(2-morpholin-4-yl-ethyl)-propionamide], with 12 nM.
`CN1CCN(C(=O)CC[C@@H]2CSC(c3cc4cc(Cl)cc(NC5CCCC5)c4[nH]3)=N2)CC1` [Example 154, 3-[(R)-2-(5-chloro-7-cyclopentylamino-1H-indol-2-yl)-4,5-dihydro-thiazol-4-yl]-1-(4-methyl-piperazin-1-yl)-propan-1-one]: the “AC1.5 (the compound concentration at which the enzymatic activity is increased by 1.5 times)” value is 14 nM.
Regarding `CC(=O)N1CCN(CCC[C@@H]2CSC(c3cc4cc(Cl)cc(NC5CCCC5)c4[nH]3)=N2)CC1` [Example 155, 1-(4-{3-[(R)-2-(5-chloro-7-cyclopentylamino-1H-indol-2-yl)-4,5-dihydro-thiazol-4-yl]-propyl}-piperazin-1-yl)-ethanone], the “AC1.5 (the compound concentration at which the enzymatic activity is increased by 1.5 times)” value is given as 12 nM.
Turning to `Clc1cc(NC2CCCC2)c2[nH]c(C3=N[C@H](CCCN4CCOCC4)CS3)cc2c1` [Example 156, {5-chloro-2-[(R)-4-(3-morpholin-4-yl-propyl)-4,5-dihydro-thiazol-2-yl]-1H-indol-7-yl}-cyclopentyl-amine], the “AC1.5 (the compound concentration at which the enzymatic activity is increased by 1.5 times)” value turned out to be 22 nM.
`CCOC(=O)CC[C@@H]1CSC(c2cc3cc(C)cc(NC4CCCC4)c3[nH]2)=N1` [Example 157, 3-[(R)-2-(7-cyclopentylamino-5-methyl-1H-indol-2-yl)-4,5-dihydro-thiazol-4-yl]-propionic acid ethyl ester]: the “AC1.5 (the compound concentration at which the enzymatic activity is increased by 1.5 times)” value is 24 nM.
As for `CCOC(=O)CC[C@@H]1CSC(c2cc3cc(F)cc(NC4CCCC4)c3[nH]2)=N1` [Example 160, 3-[(R)-2-(7-cyclopentylamino-5-fluoro-1H-indol-2-yl)-4,5-dihydro-thiazol-4-yl]-propionic acid ethyl ester], the figure is 12 nM.
On to `O=C(O)CC[C@@H]1CSC(c2cc3cc(F)cc(NC4CCCC4)c3[nH]2)=N1` [Example 161, 3-[(R)-2-(7-cyclopentylamino-5-fluoro-1H-indol-2-yl)-4,5-dihydro-thiazol-4-yl]-propionic acid], for which the “AC1.5 (the compound concentration at which the enzymatic activity is increased by 1.5 times)” value amounted to 10 nM.
Take `CCOC(=O)CC[C@@H]1CSC(c2cc3cc(Br)cc(NC4CCCC4)c3[nH]2)=N1` [Example 162, 3-[(R)-2-(5-bromo-7-cyclopentylamino-1H-indol-2-yl)-4,5-dihydro-thiazol-4-yl]-propionic acid ethyl ester]: the “AC1.5 (the compound concentration at which the enzymatic activity is increased by 1.5 times)” value was determined as 21 nM.
Regarding `O=C(O)CC[C@@H]1CSC(c2cc3cc(Br)cc(NC4CCCC4)c3[nH]2)=N1` [Example 163, 3-[(R)-2-(5-bromo-7-cyclopentylamino-1H-indol-2-yl)-4,5-dihydro-thiazol-4-yl]-propionic acid], the “AC1.5 (the compound concentration at which the enzymatic activity is increased by 1.5 times)” value was found to be 5 nM.
As to `COc1cc(NC2CCCC2)c2[nH]c(C3=N[C@H](CCC(=O)O)CS3)cc2c1` [Example 165, 3-[(R)-2-(7-cyclopentylamino-5-methoxy-1H-indol-2-yl)-4,5-dihydro-thiazol-4-yl]-propionic acid], the “AC1.5 (the compound concentration at which the enzymatic activity is increased by 1.5 times)” value was 12 nM.
Take `CCOC(=O)CC[C@@H]1CSC(c2cc3cc(OCC)cc(NC4CCCC4)c3[nH]2)=N1` [Example 166, 3-[(R)-2-(7-cyclopentylamino-5-ethoxy-1H-indol-2-yl)-4,5-dihydro-thiazol-4-yl]-propionic acid ethyl ester]: the “AC1.5 (the compound concentration at which the enzymatic activity is increased by 1.5 times)” value came to 43 nM.
Take `CCOC(=O)CC[C@@H]1CSC(c2cc3cc(OC(F)(F)F)cc(NC4CCCC4)c3[nH]2)=N1` [Example 168, 3-[(R)-2-(7-cyclopentylamino-5-trifluoromethoxy-1H-indol-2-yl)-4,5-dihydro-thiazol-4-yl]-propionic acid ethyl ester]: the “AC1.5 (the compound concentration at which the enzymatic activity is increased by 1.5 times)” value was determined as 15 nM.
As to `O=C(O)CC[C@@H]1CSC(c2cc3cc(OC(F)(F)F)cc(NC4CCCC4)c3[nH]2)=N1` [Example 169, 3-[(R)-2-(7-cyclopentylamino-5-trifluoromethoxy-1H-indol-2-yl)-4,5-dihydro-thiazol-4-yl]-propionic acid], the “AC1.5 (the compound concentration at which the enzymatic activity is increased by 1.5 times)” value is reported as 9 nM.
Turning to `CCOC(=O)COC[C@@H]1CSC(c2cc3cc(F)cc(NC4CCCC4)c3[nH]2)=N1` [Example 170, [(R)-2-(7-cyclopentylamino-5-fluoro-1H-indol-2-yl)-4,5-dihydro-thiazol-4-ylmethoxy]-acetic acid ethyl ester], the “AC1.5 (the compound concentration at which the enzymatic activity is increased by 1.5 times)” value was found to be 12 nM.
`O=C(O)COC[C@@H]1CSC(c2cc3cc(F)cc(NC4CCCC4)c3[nH]2)=N1` [Example 171, [(R)-2-(7-cyclopentylamino-5-fluoro-1H-indol-2-yl)-4,5-dihydro-thiazol-4-ylmethoxy]-acetic acid]: the “AC1.5 (the compound concentration at which the enzymatic activity is increased by 1.5 times)” value turned out to be 23 nM.
Turning to `c1cc(NC2CCCC2)c2[nH]c(C3=N[C@H](Cc4nc(N5CCCCC5)no4)CS3)cc2c1` [Example 173, cyclopentyl-{2-[(R)-4-(3-piperidin-1-yl-[1,2,4]oxadiazol-5-ylmethyl)-4,5-dihydro-thiazol-2-yl]-1H-indol-7-yl}-amine], the “AC1.5 (the compound concentration at which the enzymatic activity is increased by 1.5 times)” value was 114 nM.
Turning to `CC(=O)N1CCN(CC[C@@H]2CSC(c3cc4cccc(Oc5ccccc5)c4[nH]3)=N2)CC1` [Example 175, 1-(4-{2-[(R)-2-(7-phenoxy-1H-indol-2-yl)-4,5-dihydro-thiazol-4-yl]-ethyl}-piperazin-1-yl)-ethanone], the “AC1.5 (the compound concentration at which the enzymatic activity is increased by 1.5 times)” value came out at 71 nM.
With `c1ccc(Oc2cccc3cc(C4=N[C@H](CCN5CCOCC5)CS4)[nH]c23)cc1` [Example 176, 2-[(R)-4-(2-morpholin-4-yl-ethyl)-4,5-dihydro-thiazol-2-yl]-7-phenoxy-1H-indole], the “AC1.5 (the compound concentration at which the enzymatic activity is increased by 1.5 times)” value is listed as 178 nM.
